Laboratory results published in paper PMC9020998 (Oxidative Medicine and Cellular Longevity, 2022).
Several values for one entry are separate records, joined by “and”; a condition that tells them apart may be missing. Equal entries are not always repeated. Where two headings read alike, the source gives them in different places.

Columns and labels:
[1] = DPPH free radical scavenging assay; format: biochemical
Experimental: The 1,1-diphenyl-2-picrylhydrazyl free radicals of the compounds were performed by using the reported method. Different concentrations of the compounds were mixed with DPPH methanolic solution of 0.004%. After half an hour, the absorption was determined with a double-beam UV-visible spectrophotometer at 517 nm. The same standard (ascorbic acid) was used as in the ABTS assay. The experiments were repeated three times. The percent inhibitions and IC50 values of the compounds were calculated with the standard formula.

[2] = ABTS free radical scavenging assay; format: biochemical; conditions: for ABTS IC50: ABTS radical scavenging, absorbance at 734 nm
Experimental: The ABTS free radical scavenging antioxidant activity of the compounds was performed by using the previously reported methods. In this activity, the compounds scavenge ABTS^+ cations, and thus, a reduction in absorption is observed at 734 nm using a UV-visible spectrophotometer. Solutions of 7 mM ABTS and 2.45 mM of […] were prepared and were mixed. The mixture was stored at dark for about 16 h to get ABTS cations which appeared dark in color. The solution of ABTS cation was diluted with phosphate buffer (0.01 M having pH of 7.4); the absorbance value (0.70) was adjusted at 734 nm. To confirm the ABTS radicals' scavenging capacity, 300 μL solution of compound was mixed with 3.0 mL of ABTS. After one minute, the reduction in absorption was noted and was monitored for six minutes. The ascorbic acid was used as positive control in this activity. The experiments were repeated three times. The percent inhibitions and its IC50 values were measured as per the standard method.

[3] = molecular target: COX-1 (Homo sapiens, UniProt P23219); experiment: Anticyclooxygenase assay (COX-1); format: biochemical
Experimental: (§1) The COX-1 enzyme 10 μL and COX-2 300 units/mL were activated on ice for 5 min. The activation solution was accompanied by a cofactor of 50 μL containing glutathione, hematin, 1.0 mM, and TMPD in Tris-HCl buffer with pH of 8. […] The reaction was initiated when arachidonic acid 20 μL was added. The reaction was incubated for 5 min, and absorbance was measured at 570 nm as per the reported procedure. The experiments were repeated three times.

[4] = molecular target: BChE (Homo sapiens, UniProt P06276); experiment: Anticholinesterase assay (BChE); format: biochemical
Experimental: (§2) The two enzymes break down their respective thiocholine iodide to produce the ion 5-thio-2-nitrobenzoate. […] The enzyme dilutions were prepared in phosphate buffer having pH of 8. Parallelly, the acetyl and butyrylthiocholine iodide solutions (0.05 mM) and DTNB were also prepared in H2O (distilled water of our laboratory) and were stored at 8°C for 15 min. […] The experiments were performed three times. The percent inhibitions and their subsequent IC50 values were calculated as per the standard formula [43].

[5] = molecular target: AChE (Homo sapiens, UniProt P22303); experiment: biochemical
Experimental: as §2

[6] = molecular target: 5-LOX; experiment: 5-Lipoxygenase assay (5-LOX); format: biochemical
Experimental: The lipoxygenase enzyme 10,000 unit/μL was used in the assay. The substrate used in this assay was linoleic acid. […] The combined mixture was incubated at 25°C for 5 min. Afterwards, linoleic acid was properly mixed with it and was kept for 5 min. […] The experiments were performed three times. The percent 5-LOX inhibitions and the IC50 values were calculated as per the standard formula [44].

[7] = molecular target: T1, COX-2 (Homo sapiens, UniProt P35354); experiment: Anticyclooxygenase assay (COX-2); format: biochemical
T1 sequence (P35354 18-604): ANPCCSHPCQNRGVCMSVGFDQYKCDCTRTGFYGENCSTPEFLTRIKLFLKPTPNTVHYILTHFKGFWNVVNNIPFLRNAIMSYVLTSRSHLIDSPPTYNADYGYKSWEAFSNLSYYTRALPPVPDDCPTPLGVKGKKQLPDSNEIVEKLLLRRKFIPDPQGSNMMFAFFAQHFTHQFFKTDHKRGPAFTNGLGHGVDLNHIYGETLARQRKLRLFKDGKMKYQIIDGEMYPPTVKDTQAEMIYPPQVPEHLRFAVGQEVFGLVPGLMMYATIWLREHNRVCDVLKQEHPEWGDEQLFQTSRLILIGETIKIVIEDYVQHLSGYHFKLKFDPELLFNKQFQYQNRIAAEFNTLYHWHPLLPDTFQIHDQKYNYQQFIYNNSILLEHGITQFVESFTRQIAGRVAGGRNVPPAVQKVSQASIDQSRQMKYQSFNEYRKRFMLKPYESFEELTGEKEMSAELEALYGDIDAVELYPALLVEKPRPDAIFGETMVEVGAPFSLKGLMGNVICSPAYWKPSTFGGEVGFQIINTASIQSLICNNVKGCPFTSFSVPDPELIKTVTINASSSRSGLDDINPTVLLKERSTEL
Experimental: as §1

[8] = molecular target: T2, protein tyrosine phosphatase 1B (Homo sapiens, UniProt P18031); experiment: Protein tyrosine phosphatase 1B assay; format: biochemical
T2 sequence (P18031 1-435): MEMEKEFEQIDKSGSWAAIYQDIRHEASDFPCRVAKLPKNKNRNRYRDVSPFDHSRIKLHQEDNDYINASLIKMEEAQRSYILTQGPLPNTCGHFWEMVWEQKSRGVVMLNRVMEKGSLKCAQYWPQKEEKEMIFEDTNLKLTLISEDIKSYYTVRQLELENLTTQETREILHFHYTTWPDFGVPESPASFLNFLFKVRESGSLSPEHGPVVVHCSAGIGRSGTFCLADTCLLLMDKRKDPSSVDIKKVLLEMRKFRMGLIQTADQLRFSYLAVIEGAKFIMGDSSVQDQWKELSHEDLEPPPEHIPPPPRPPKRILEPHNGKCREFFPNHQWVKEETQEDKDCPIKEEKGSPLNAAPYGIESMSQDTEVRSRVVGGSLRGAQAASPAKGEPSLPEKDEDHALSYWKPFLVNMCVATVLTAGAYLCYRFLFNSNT
Experimental: In the PTP1B assay, 4-nitrophenylphosphate was used as substrate. The solution of dimethyl glutarate […] in buffer of pH 7 was prepared to be used in the assay. […] The solution was incubated at 37°C for 15 min. […] The experiments were performed three times. The percent inhibitions and their corresponding IC50 values were calculated as per the standard formula [46].

[9] = DPPH radical scavenging, absorbance at 517 nm
[10] = Tables 2 and 3 print no unit, text μg/mL, abstract μM
[11] = Table 2 prints no unit, text b63 μg/mL, abstract μM

Sequence of AChE (P22303 32-614): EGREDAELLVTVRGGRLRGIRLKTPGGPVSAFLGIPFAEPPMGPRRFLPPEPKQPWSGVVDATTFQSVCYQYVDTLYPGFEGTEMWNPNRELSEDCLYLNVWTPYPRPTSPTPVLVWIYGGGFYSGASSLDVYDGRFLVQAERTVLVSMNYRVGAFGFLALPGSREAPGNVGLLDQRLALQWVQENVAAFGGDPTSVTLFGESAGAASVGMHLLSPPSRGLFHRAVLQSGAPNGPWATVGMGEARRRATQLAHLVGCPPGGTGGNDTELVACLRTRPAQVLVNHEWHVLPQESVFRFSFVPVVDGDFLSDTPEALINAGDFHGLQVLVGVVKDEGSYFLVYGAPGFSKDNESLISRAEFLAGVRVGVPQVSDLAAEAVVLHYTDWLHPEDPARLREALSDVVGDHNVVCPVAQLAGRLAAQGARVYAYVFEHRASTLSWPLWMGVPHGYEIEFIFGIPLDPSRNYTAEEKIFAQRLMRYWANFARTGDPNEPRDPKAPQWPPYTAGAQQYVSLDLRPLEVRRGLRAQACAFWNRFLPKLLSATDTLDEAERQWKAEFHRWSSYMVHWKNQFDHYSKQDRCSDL
Sequence of COX-1 (P23219 24-599): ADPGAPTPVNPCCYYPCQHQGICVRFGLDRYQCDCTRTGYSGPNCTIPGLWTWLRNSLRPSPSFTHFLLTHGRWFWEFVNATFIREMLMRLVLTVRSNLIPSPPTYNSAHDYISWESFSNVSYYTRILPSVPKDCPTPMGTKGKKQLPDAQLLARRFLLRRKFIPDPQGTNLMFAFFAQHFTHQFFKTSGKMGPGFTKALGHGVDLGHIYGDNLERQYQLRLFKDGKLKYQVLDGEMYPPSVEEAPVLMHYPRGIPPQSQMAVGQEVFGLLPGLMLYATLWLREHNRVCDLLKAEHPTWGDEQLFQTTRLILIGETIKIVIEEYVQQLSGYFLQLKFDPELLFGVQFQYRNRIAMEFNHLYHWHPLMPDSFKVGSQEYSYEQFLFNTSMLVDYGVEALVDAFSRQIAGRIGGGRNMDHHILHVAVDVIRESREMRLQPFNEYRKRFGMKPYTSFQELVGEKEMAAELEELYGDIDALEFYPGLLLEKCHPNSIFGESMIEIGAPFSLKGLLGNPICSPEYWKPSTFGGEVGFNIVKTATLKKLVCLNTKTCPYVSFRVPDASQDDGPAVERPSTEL
Sequence of BChE (P06276 29-602, species assumed): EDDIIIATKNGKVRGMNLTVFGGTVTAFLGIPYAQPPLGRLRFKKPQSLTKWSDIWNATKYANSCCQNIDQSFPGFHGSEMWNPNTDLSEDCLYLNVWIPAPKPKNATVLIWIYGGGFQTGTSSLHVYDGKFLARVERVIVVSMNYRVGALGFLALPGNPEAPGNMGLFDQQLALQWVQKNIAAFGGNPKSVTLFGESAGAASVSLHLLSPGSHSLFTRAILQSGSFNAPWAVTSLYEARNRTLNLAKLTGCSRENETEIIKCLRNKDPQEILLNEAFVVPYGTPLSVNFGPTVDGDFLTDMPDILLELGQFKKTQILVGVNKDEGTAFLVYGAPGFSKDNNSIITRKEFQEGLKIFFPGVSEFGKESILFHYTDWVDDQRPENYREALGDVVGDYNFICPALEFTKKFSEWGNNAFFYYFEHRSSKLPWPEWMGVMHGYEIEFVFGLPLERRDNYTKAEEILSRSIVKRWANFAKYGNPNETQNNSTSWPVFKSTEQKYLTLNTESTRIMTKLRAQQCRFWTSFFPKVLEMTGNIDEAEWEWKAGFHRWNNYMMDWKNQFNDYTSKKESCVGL

O=C1O[C@H]([C@@H](O)CO)C(O)=C1O [Ascorbic acid, reference compound]
DPPH IC50 [1, 9]: 0.840 µg/mL | DPPH IC50 [1, 10]: 0.840 ± 0.14 and 0.840 ± 0.04 | ABTS IC50 [2]: 0.211 µg/mL

OCc1ccco1 [Compound 1, Furan-2-ylmethanol]
DPPH IC50 [1, 9]: 8.19 µg/mL | ABTS IC50 [2]: 7.43 µg/mL

CC1=C(O)C(=O)C(C)(O)O1 (centres unmarked) [Compound 2, 2,4-Dihydroxy-2,5-dimethylfuran-3(2H)-one]
DPPH IC50 [1, 9]: 1.61 µg/mL | ABTS IC50 [2]: 3.005 µg/mL | ABTS percent inhibition ([2]; at 31.25 μg/mL): 66.44 | ABTS percent inhibition ([2]; at 62.5 μg/mL): 71.47 | ABTS percent inhibition ([2]; at 125 μg/mL): 77.39 | ABTS percent inhibition ([2]; at 250 μg/mL): 83.34 | ABTS percent inhibition ([2]; at 500 μg/mL): 88.36

C=Cc1ccc(O)cc1 [Compound 3, 4-Vinylphenol]
DPPH IC50 [1, 9]: 10.27 µg/mL | ABTS IC50 [2]: 12.60 µg/mL

COc1c(O)ccc(O)c1C [Compound 4, 2-Methoxy-3-methylbenzene-1,4-diol]
DPPH IC50 [1, 9]: 3.19 µg/mL | ABTS IC50 [2]: 4.63 µg/mL

COc1cc(C=O)ccc1O [Compound 5, 4-Hydroxy-3-methoxybenzaldehyde]
DPPH IC50 [1, 9]: 2.12 µg/mL | ABTS IC50 [2]: 8.28 µg/mL

COc1cc(/C=C2\CC(=O)N(c3ccc(O)cc3)C2=O)ccc1O [Compound 5A, (E)-3-(4-Hydroxy-3-methoxybenzylidene)-1-(4-hydroxyphenyl)pyrrolidine-2,5-dione]
IC50 [1]: 1.05 µM | DPPH IC50 [1, 10]: 1.05 ± 0.51 | IC50 ([3]; COX-1 IC50, Table 2 prints no unit, text b63 μg/mL, abstract μM): 42.8 µM | IC50 ([3]; COX-1 IC50, as printed in abstract): 13.9 µM | IC50 [4]: 15.1 µM | IC50 [4, 11]: 46.4 µM | IC50 [5]: 10.6 µM | IC50 [5, 11]: 32.6 µM | SI (selectivity index AChE/BChE) ([5]; ratio of BChE IC50 to AChE IC50): 1.42 | 5-LOX IC50 ([6]; Table 2 prints no unit, text b63 μg/mL, abstract and b89 μM): 0.71 ± 0.10 | IC50 ([6]; as printed in abstract and b89): 0.71 µM | IC50 ([7]; COX-2 IC50, Table 2 prints no unit, text b63 μg/mL, abstract μM): 3.32 µM | IC50 ([7]; COX-2 IC50, as printed in abstract): 1.08 µM | SI (COX-2 selectivity index) ([7]; ratio of COX-1 and COX-2 IC50): 12.9

COc1cc(/C=C2\SC(=O)NC2=O)ccc1O [Compound 5B, (Z)-5-(4-Hydroxy-3-methoxybenzylidene)thiazolidine-2,4-dione]
IC50 [1]: 1.94 µM | DPPH IC50 [1, 10]: 1.94 ± 1.20 | IC50 ([8]; read-out: protein tyrosine phosphatase 1B IC50): 53.3 µM | IC50 ([8]; unit inferred, text b66 μg/mL, abstract μM, read-out: PTP1B IC50 (converted)): 212 µM

COc1cc(CC(C)=O)ccc1O [Compound 6, 1-(4-Hydroxy-3-methoxyphenyl)propan-2-one]
DPPH IC50 [1, 9]: 9.99 µg/mL | ABTS IC50 [2]: 9.55 µg/mL
